Assay type in all cases: in vivo
Experiment [1] relates to Alopecurus myosuroides (ALOMY). Kind of experiment: Pre-emergence biological efficacy, glasshouse pot test. The following applies: 312 h. The method in brief: (§1)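 Damage was rated on a 0–100 scale 13 days after treatment, with plants kept at 24/16° C, 14 h light and 65% humidity. The pre-emergence spray, at 1000 or 250 g/ha in acetone/water 50:50 with 0.5% Tween 20, was applied one day after sowing.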

Experiment [2] concerns Amaranthus retoflexus (AMARE). Described as above. The following applies: Amaranthus retroflexus, 312 h. The method, boiled down:
as §1

For experiment [3], the system named is Echinochloa crus-galli (ECHCG). Described as above. The following applies: 312 h. The method, boiled down:
as §1

Experiment [4] relates to Ipomea hederaceae (IPOHE). Described as above. The following applies: Ipomoea hederacea, 312 h. The method, boiled down: as §1
The subject of experiment [5] is Setaria faberi (SETFA). The description is as above. The following applies: 312 h. The method in brief:
as §1

Experiment [6] concerns Solanum nigrum (SOLNI). The description is as above. To be noted: 312 h. The method, boiled down:
as §1

The test system of experiment [7] is Alopecurus myosuroides (ALOMY). Kind of experiment: Post-emergence biological efficacy, glasshouse pot test. To be noted: 312 h. The method, boiled down: (§2)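 Scored 13 days after spraying on a 0 (no damage) to 100 (total damage) scale. Treatment was a post-emergence spray at 1000 or 250 g/ha, from acetone/water 50:50 plus 0.5% Tween 20, onto 8-day-old plants in soil pots. Growth at 24/16° C, 14 h photoperiod, 65% humidity, watered twice daily.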

In experiment [8] the test system is Amaranthus retoflexus (AMARE). The description is as above. To be noted: Amaranthus retroflexus, 312 h. The method, boiled down:
as §2

The test system of experiment [9] is Echinochloa crus-galli (ECHCG). The description is as above. To be noted: 312 h. The method in brief: as §2
Experiment [10] has as its system Ipomea hederaceae (IPOHE). Described as above. To be noted: Ipomoea hederacea, 312 h. The method in brief:
as §2

Experiment [11] relates to Setaria faberi (SETFA). The description is as above. The following applies: 312 h. The method, boiled down:
as §2

In experiment [12] the test system is Solanum nigrum (SOLNI). The description is as above. The following applies: 312 h. The method in brief: as §2
[13] abbreviates: pre-emergence, rate 1,000 g/ha, evaluated after 13 days (100=total damage to plant; 0=no damage), read-out: Percentage damage caused to weed species, ALOMY.
The mark [14] stands for this setting: pre-emergence, rate 1,000 g/ha, evaluated after 13 days (100=total damage to plant; 0=no damage), read-out: Percentage damage caused to weed species, AMARE.
[15] abbreviates: pre-emergence, rate 1,000 g/ha, evaluated after 13 days (100=total damage to plant; 0=no damage), read-out: Percentage damage caused to weed species, ECHCG.
Where [16] appears, read: pre-emergence, rate 1,000 g/ha, evaluated after 13 days (100=total damage to plant; 0=no damage), read-out: Percentage damage caused to weed species, IPOHE.
Setting [17] is: pre-emergence, rate 1,000 g/ha, evaluated after 13 days (100=total damage to plant; 0=no damage), read-out: Percentage damage caused to weed species, SETFA.
The mark [18] stands for this setting: pre-emergence, rate 1,000 g/ha, evaluated after 13 days (100=total damage to plant; 0=no damage), read-out: Percentage damage caused to weed species, SOLNI.
[19] abbreviates: Rate 1,000 g/ha, post-emergence spray, evaluated after 13 days (100=total damage to plant; 0=no damage to plant), read-out: Percentage damage caused to weed species, post-emergence, ALOMY.
[20] abbreviates: Rate 1,000 g/ha, post-emergence spray, evaluated after 13 days (100=total damage to plant; 0=no damage to plant), read-out: Percentage damage caused to weed species, post-emergence, AMARE.
Setting [21] is: Rate 1,000 g/ha, post-emergence spray, evaluated after 13 days (100=total damage to plant; 0=no damage to plant), read-out: Percentage damage caused to weed species, post-emergence, ECHCG.
The mark [22] stands for this setting: Rate 1,000 g/ha, post-emergence spray, evaluated after 13 days (100=total damage to plant; 0=no damage to plant), read-out: Percentage damage caused to weed species, post-emergence, IPOHE.
[23] abbreviates: Rate 1,000 g/ha, post-emergence spray, evaluated after 13 days (100=total damage to plant; 0=no damage to plant), read-out: Percentage damage caused to weed species, post-emergence, SETFA.
The mark [24] stands for this setting: Rate 1,000 g/ha, post-emergence spray, evaluated after 13 days (100=total damage to plant; 0=no damage to plant), read-out: Percentage damage caused to weed species, post-emergence, SOLNI.
Where [25] appears, read: pre-emergence, 1,000 g/ha, evaluated after 13 days (100=total damage; 0=no damage), read-out: Percentage damage ALOMY.
[26] abbreviates: pre-emergence, 1,000 g/ha, evaluated after 13 days (100=total damage; 0=no damage), read-out: Percentage damage AMARE.
[27] abbreviates: pre-emergence, 1,000 g/ha, evaluated after 13 days (100=total damage; 0=no damage), read-out: Percentage damage ECHCG.
Setting [28] is: pre-emergence, 1,000 g/ha, evaluated after 13 days (100=total damage; 0=no damage), read-out: Percentage damage IPOHE.
Where [29] appears, read: pre-emergence, 1,000 g/ha, evaluated after 13 days (100=total damage; 0=no damage), read-out: Percentage damage SETFA.
The mark [30] stands for this setting: pre-emergence, 1,000 g/ha, evaluated after 13 days (100=total damage; 0=no damage), read-out: Percentage damage SOLNI.
[31] abbreviates: post-emergence, 1,000 g/ha, evaluated after 13 days (100=total damage; 0=no damage), read-out: Percentage damage caused to weed species, ALOMY.
The mark [32] stands for this setting: post-emergence, 1,000 g/ha, evaluated after 13 days (100=total damage; 0=no damage), read-out: Percentage damage caused to weed species, AMARE.
The mark [33] stands for this setting: post-emergence, 1,000 g/ha, evaluated after 13 days (100=total damage; 0=no damage), read-out: Percentage damage caused to weed species, ECHCG.
Setting [34] is: post-emergence, 1,000 g/ha, evaluated after 13 days (100=total damage; 0=no damage), read-out: Percentage damage caused to weed species, IPOHE.
Setting [35] is: post-emergence, 1,000 g/ha, evaluated after 13 days (100=total damage; 0=no damage), read-out: Percentage damage caused to weed species, SETFA.
Setting [36] is: post-emergence, 1,000 g/ha, evaluated after 13 days (100=total damage; 0=no damage), read-out: Percentage damage caused to weed species, SOLNI.

Seven molecules from US20110086759A1, “CHEMICAL COMPOUNDS” (SYNGENTA CROP PROTECTION, INC., priority 2007, published 2011) can be followed below.

As to `COC(=O)c1nc(-c2ccc(Cl)c(F)c2)nc(NCc2ccco2)c1Cl` [Compound 222-48, 5-Chloro-2-(4-chloro-3-fluorophenyl)-4-(furan-2-ylmethyl-amino)-6-methoxycarbonyl-pyrimidine], the pest or weed control at 1000 g/ha in experiment [1] (setting [13]) amounted to 30%; in [2] (setting [14]), 100%; in experiment [3] (setting [15]), 50%; in experiment [4] (setting [16]) it was 70%; in experiment [5] (setting [17]), 20%; in [6] (setting [18]), 100%. The pest or weed control at 1000 g/ha in experiment [7] (setting [19]) came to 30%; in [8] (setting [20]), 100%; in [9] (setting [21]), 40%; in experiment [10] (setting [22]) it was 80%; in experiment [11] (setting [23]) it was 40%; in experiment [12] (setting [24]), 90%.
For the molecule `COC(=O)c1nc(-c2ccc(Cl)c(N(C)C)c2F)nc(NCc2ccco2)c1Cl` [Compound 261-48, 5-Chloro-2-(4-chloro-3-dimethylamino-2-fluorophenyl)-4-(furan-2-yl-methyl-amino)-6-methoxy-carbonylpyrimidine], the pest or weed control at 1000 g/ha in experiment [1] (setting [13]) turned out to be 50%; in experiment [2] (setting [14]), 100%; in [3] (setting [15]), 90%; in [4] (setting [16]) it was 30%; in [5] (setting [17]), 90%; in [6] (setting [18]) it was 40%. The pest or weed control at 1000 g/ha in experiment [7] (setting [19]) is 50%; in experiment [8] (setting [20]), 100%; in experiment [9] (setting [21]) it was 70%; in experiment [10] (setting [22]) it was 60%; in experiment [11] (setting [23]) it was 90%; in experiment [12] (setting [24]), 80%.
As to `COC(=O)c1nc(C2CC2)nc(NCC2(OC)C=CC(OC)O2)c1Cl` (stereo not drawn) [Compound 4-55, 5-Chloro-2-cyclopropyl-4-[(2,5-dihydro-2,5-dimethoxy-furan-2-yl)methylamino]-6-methoxycarbonyl-pyrimidine], the pest or weed control at 1000 g/ha in [1] (setting [25]) is 0%; in experiment [2] (setting [26]) it was 100%; in experiment [3] (setting [27]) it was 0%; in experiment [4] (setting [28]), 60%; in experiment [5] (setting [29]), 0%; in [6] (setting [30]) it was 10%. For the same molecule, the pest or weed control at 1000 g/ha in experiment [7] (setting [31]) worked out at 10%; in [8] (setting [32]) it was 100%; in experiment [9] (setting [33]), 0%; in experiment [10] (setting [34]) it was 50%; in experiment [11] (setting [35]), 30%; in experiment [12] (setting [36]), 80%.
With `COC(=O)c1nc(C2CC2)nc(NCc2cccc(C(F)(F)F)c2)c1Cl` [Compound 4-76, 5-Chloro-2-cyclopropyl-6-methoxycarbonyl-4-(3-trifluoromethyl-phenylmethyl-amino)pyrimidine], the pest or weed control at 1000 g/ha amounted to 40% in experiment [1] (setting [25]); 60% in experiment [2] (setting [26]); 60% in experiment [3] (setting [27]); 70% in [4] (setting [28]); 50% in experiment [5] (setting [29]); 60% in experiment [6] (setting [30]). In addition, the pest or weed control at 1000 g/ha was 40% in experiment [7] (setting [31]); 100% in [8] (setting [32]); 70% in [9] (setting [33]); 100% in [10] (setting [34]); 90% in experiment [11] (setting [35]); 100% in experiment [12] (setting [36]).
For `COC(=O)c1nc(-c2ccc(Cl)cc2)nc(NCc2ccccc2)c1Cl` [Compound 40-60, 5-Chloro-2-(4-chlorophenyl)-6-methoxycarbonyl-4-(phenylmethylamino) pyrimidine], the pest or weed control at 1000 g/ha is 20% in experiment [1] (setting [13]); 90% in [2] (setting [14]); 50% in experiment [3] (setting [15]); 0% in [4] (setting [16]); 0% in experiment [5] (setting [17]); 30% in experiment [6] (setting [18]). For the same molecule, the pest or weed control at 1000 g/ha in experiment [7] (setting [19]) worked out at 0%; in experiment [8] (setting [20]), 60%; in experiment [9] (setting [21]) it was 0%; in experiment [10] (setting [22]) it was 100%; in [11] (setting [23]), 0%; in experiment [12] (setting [24]) it was 70%.
In the case of `COC(=O)c1nc(C2CC2)nc(NC(C)COc2ccccc2)c1Cl` (stereo not drawn) [Compound 4-268, 5-Chloro-2-cyclopropyl-6-methoxycarbonyl-4-(2-phenoxy-1-methylethylamino)-pyrimidine], the pest or weed control at 1000 g/ha in [1] (setting [25]) was found to be 0%; in experiment [2] (setting [26]), 10%; in experiment [3] (setting [27]) it was 0%; in [4] (setting [28]) it was 10%; in experiment [5] (setting [29]), 0%; in experiment [6] (setting [30]) it was 10%. Further, the pest or weed control at 1000 g/ha stood at 10% in experiment [7] (setting [31]); 30% in experiment [8] (setting [32]); 10% in [9] (setting [33]); 50% in experiment [10] (setting [34]); 10% in experiment [11] (setting [35]); 60% in experiment [12] (setting [36]).
With `COC(=O)c1nc(C2CC2)nc(NCc2cc(OC)c(OC)c(OC)c2)c1Cl` [Compound 4-122, 5-Chloro-2-cyclopropyl-6-methoxycarbonyl-4-(3,4,5-trimethoxy-phenylmethyl-amino)pyrimidine], the pest or weed control at 1000 g/ha in experiment [1] (setting [25]) turned out to be 10%; in experiment [2] (setting [26]), 60%; in experiment [3] (setting [27]), 30%; in experiment [4] (setting [28]), 90%; in experiment [5] (setting [29]), 20%; in [6] (setting [30]) it was 30%. The pest or weed control at 1000 g/ha turned out to be 20% in [7] (setting [31]); 100% in experiment [8] (setting [32]); 90% in experiment [9] (setting [33]); 100% in [10] (setting [34]); 90% in experiment [11] (setting [35]); 100% in [12] (setting [36]).
